The target in experiment [1] is T1, Pim-1 (Homo sapiens (Human), UniProt P11309). Nature of the experiment: Pim-Mn enzyme assay (HTRF, 384-well), Pim-1. The following applies: read-out: Pim-1-Mn IC50 IP. In kind it is biochemical. For orientation: TR-FRET usually uses a lanthanide donor and a delayed reading to cut background.
Experiment [2] deals with T2, Pim-2 (Homo sapiens (Human), UniProt Q9P1W9). Nature of the experiment: Pim enzyme assay (HTRF, 96-well), Pim-2. It is filed as biochemical. To be noted: full length recombinant Pim-2, biotinylated-BAD (S112) peptide, 10-point curve, 45 min RT, read-out: Pim-2 IC50 IP. An outline of the steps:
(§1)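 HTRF detection of biotinylated BAD (S112) phosphorylation by full-length recombinant His-tagged Pim-1 or Pim-2 in 60 mM Hepes pH 7.0, 0.05% BSA, 2 mM DTT at 22 °C: 2 h for Pim-1, 45 min for Pim-2. Stopped with EDTA; IC50 from 4-parameter logistic fit of percent of control.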

Experiment [3] has as its target T1, Pim-1. Description: Pim enzyme assay (HTRF, 96-well), Pim-1. In kind it is biochemical. To be noted: full length recombinant Pim-1, biotinylated-BAD (S112) peptide, 10-point curve, 2 h RT, read-out: Pim-1 IC50 IP. An outline of the steps:
as §1

For experiment [4], the system named is KMS-12-BM myeloma cell line. Description: Pim KMS-12 cell assay (phospho-BAD S112 / total BAD, MSD).
The target of experiment [5] is T2, Pim-2. Nature of the experiment: Pim-Mn enzyme assay (HTRF, 384-well), Pim-2. It is filed as biochemical. The following applies: read-out: Pim-2-Mn IC50 IP.
The mark [6] stands for this setting: Pim-1 enzyme 5 pM, ATP 1.5 μM, BAD (S112) 0.5 μM, HTRF, 22-point curve.
Setting [7] is: read-out: KMS-12-BM IC50 IP, KMS-12-BM cells, phospho-BAD (S112) vs total BAD, 1 hour 50 min with compound.
The mark [8] stands for this setting: Pim-2 enzyme 0.5 pM, ATP 1.5 μM, BAD (S112) 0.5 μM, HTRF, 22-point curve.
[9] abbreviates: Homo sapiens, KMS-12-BM, read-out: KMS-12-BM IC50 IP, KMS-12-BM cells, phospho-BAD (S112) vs total BAD, 1 hour 50 min with compound.
Setting [10] is: Homo sapiens, KMS-12-BM, read-out: KMS-12-BM IC50 IP.

Structures are written as SMILES. Read-outs that look alike come from different tables or passages of the source.

T1 sequence (P11309 whole entry): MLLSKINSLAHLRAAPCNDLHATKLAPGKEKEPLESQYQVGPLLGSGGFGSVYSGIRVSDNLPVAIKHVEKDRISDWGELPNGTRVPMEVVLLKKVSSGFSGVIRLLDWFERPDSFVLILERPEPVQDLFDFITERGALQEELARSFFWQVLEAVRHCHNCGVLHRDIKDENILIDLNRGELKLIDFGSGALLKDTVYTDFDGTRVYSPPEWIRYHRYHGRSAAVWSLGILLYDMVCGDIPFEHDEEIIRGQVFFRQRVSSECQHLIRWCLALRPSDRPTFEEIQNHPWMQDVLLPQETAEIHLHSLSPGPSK
T2 sequence (Q9P1W9 whole entry): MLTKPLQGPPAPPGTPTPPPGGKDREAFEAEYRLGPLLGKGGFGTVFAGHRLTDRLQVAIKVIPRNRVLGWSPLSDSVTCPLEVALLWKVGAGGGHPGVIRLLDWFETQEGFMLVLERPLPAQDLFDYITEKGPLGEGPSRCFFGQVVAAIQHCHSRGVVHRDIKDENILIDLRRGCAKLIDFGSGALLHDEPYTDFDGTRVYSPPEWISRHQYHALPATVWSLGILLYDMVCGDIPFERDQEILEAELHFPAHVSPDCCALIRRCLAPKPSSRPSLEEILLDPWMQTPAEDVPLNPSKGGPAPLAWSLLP

One may read the IC50 as the concentration that inhibits the measured activity by half. As to `Cc1nc2cccc(-c3cc4c([nH]3)CCNC4=O)c2nc1N[C@H]1CC[C@@H](N)C1` (single isomer, unassigned) [Example 142, 2-(3-((cis-3-aminocyclopentyl)amino)-2-methylquinoxalin-5-yl)-6,7-dihydro-1H-pyrrolo[3,2-c]pyridin-4(5H)-one], the IC50 at Pim-1 [1] (setting [6]) was 0.7 nM; at Pim-2 [2], 5.3 nM; at Pim-1 [3], 1.9 nM; in experiment [4] (setting [7]), 2260 nM; at Pim-2 [5] (setting [8]), 1.4 nM.
With `Cc1nc2cccc(-c3cc4c([nH]3)CCNC4=O)c2nc1N[C@H]1CC[C@@H](N)C1` (single isomer, unassigned) [Example 143, 2-(3-((cis-3-aminocyclopentyl)amino)-2-methylquinoxalin-5-yl)-6,7-dihydro-1H-pyrrolo[3,2-c]pyridin-4(5H)-one], the IC50 was 0.3 nM at Pim-1 [1] (setting [6]); 0.8 nM on Pim-2 [2]; 0.7 nM at Pim-1 [3]; 440 nM in experiment [4] (setting [7]); 0.4 nM on Pim-2 [5] (setting [8]).
With `Cc1nc2cccc(-c3cc4c([nH]3)CCNC4=O)c2nc1NC1CCC1` [Example 131, 2-(3-(cyclobutylamino)-2-methylquinoxalin-5-yl)-6,7-dihydro-1H-pyrrolo[3,2-c]pyridin-4(5H)-one], the IC50 on Pim-1 [1] (setting [6]) was 1.6 nM; at Pim-2 [2], 2.6 nM; on Pim-1 [3], 5 nM; in experiment [4] (setting [9]) it was 142 nM; at Pim-2 [5] (setting [8]), 0.8 nM.
The like results for `Cc1nc2cccc(-c3cc4c([nH]3)CCNC4=O)c2nc1NC1(C)CCC1` [Example 144, 2-(2-methyl-3-((1-methylcyclobutyl)amino)quinoxalin-5-yl)-6,7-dihydro-1H-pyrrolo[3,2-c]pyridin-4(5H)-one] were, in that order, 0.8 nM, 1.6 nM, 2 nM, 67.8 nM and 0.6 nM.
Take `Cc1nc2cccc(-c3cc4c([nH]3)CCNC4=O)c2nc1NC1CC(F)(F)C1` [Example 145, 2-(3-((3,3-difluorocyclobutyl)amino)-2-methylquinoxalin-5-yl)-6,7-dihydro-1H-pyrrolo[3,2-c]pyridin-4(5H)-one]: the IC50 at Pim-1 [1] is 8.7 nM; at Pim-2 [2] it was 8.9 nM; on Pim-1 [3] it was 14.2 nM; in experiment [4] (setting [9]), 971 nM; on Pim-2 [5], 4.6 nM.
On to `Cc1nc2cccc(-c3cc4c([nH]3)CCNC4=O)c2nc1NC1(CO)CCC1` [Example 146, 2-(3-((1-(hydroxymethyl)cyclobutyl)amino)-2-methylquinoxalin-5-yl)-6,7-dihydro-1H-pyrrolo[3,2-c]pyridin-4(5H)-one], for which the IC50 turned out to be 6.5 nM on Pim-1 [1] (setting [6]); 7.9 nM at Pim-2 [2]; 8.9 nM at Pim-1 [3]; 481 nM in experiment [4] (setting [9]); 3 nM on Pim-2 [5] (setting [8]).
The like results for `Cc1nc2cccc(-c3cc4c([nH]3)CCNC4=O)c2nc1NCC(C)(C)C` [Example 147, 2-(2-methyl-3-(neopentylamino)quinoxalin-5-yl)-6,7-dihydro-1H-pyrrolo[3,2-c]pyridin-4(5H)-one] were, in that order, 1.9 nM, 1.4 nM, 2.9 nM, 176 nM and 0.6 nM.
As for `CN(c1ccccc1)c1cnc2cccc(-c3cc4c([nH]3)CCNC4=O)c2n1` [Example 188, 2-(3-(methyl(phenyl)amino)quinoxalin-5-yl)-6,7-dihydro-1H-pyrrolo[3,2-c]pyridin-4(5H)-one], the IC50 is 4.4 nM on Pim-2 [2], 2.8 nM at Pim-1 [3] and 1010 nM in experiment [4] (setting [10]).
Turning to `Cc1nc2cccc(-c3cc4c([nH]3)CCNC4=O)c2nc1Nc1ccccn1` [Example 190, 2-(2-methyl-3-(pyridin-2-ylamino)quinoxalin-5-yl)-6,7-dihydro-1H-pyrrolo[3,2-c]pyridin-4(5H)-one], the IC50 was 17.6 nM at Pim-2 [2], 36.2 nM on Pim-1 [3] and 966 nM in experiment [4] (setting [9]).
With `Cc1nc2cccc(-c3cc4c([nH]3)CCNC4=O)c2nc1NC(C)C` [Example 192, 2-(3-(isopropylamino)-2-methylquinoxalin-5-yl)-6,7-dihydro-1H-pyrrolo[3,2-c]pyridin-4(5H)-one], the values for the IC50 (at Pim-2 [2]; on Pim-1 [3]; in experiment [4] (setting [10])) were 4.9 nM, 7.5 nM and 270 nM, respectively.
For the compound `Cc1nc2cccc(-c3cc4c([nH]3)CCNC4=O)c2nc1NC(C)(C)C` [Example 193, 2-(3-(tert-butylamino)-2-methylquinoxalin-5-yl)-6,7-dihydro-1H-pyrrolo[3,2-c]pyridin-4(5H)-one], the IC50 at Pim-2 [2] was 1.3 nM; at Pim-1 [3], 1.1 nM; in experiment [4] (setting [9]), 76.2 nM.
For the compound `Cc1nc2cccc(-c3cc4c([nH]3)CCNC4=O)c2nc1NC1CC1` [Example 194, 2-(3-(cyclopropylamino)-2-methylquinoxalin-5-yl)-6,7-dihydro-1H-pyrrolo[3,2-c]pyridin-4(5H)-one], the IC50 on Pim-2 [2] amounted to 2 nM; on Pim-1 [3] it was 3.7 nM; in experiment [4] (setting [9]) it was 62.8 nM.
The matching figures for `Cc1nc2cccc(-c3cc4c([nH]3)CCNC4=O)c2nc1NC1COC1` [Example 196, 2-(2-methyl-3-(oxetan-3-ylamino)quinoxalin-5-yl)-6,7-dihydro-1H-pyrrolo[3,2-c]pyridin-4(5H)-one]: 11.4 nM, 23.8 nM and 585 nM.
Consider `Cc1nc2cccc(-c3cc4c([nH]3)CCNC4=O)c2nc1NC1(C)COC1` [Example 197, 2-(2-methyl-3-((3-methyloxetan-3-yl)amino)quinoxalin-5-yl)-6,7-dihydro-1H-pyrrolo[3,2-c]pyridin-4(5H)-one], for which the IC50 was determined as 5.7 nM on Pim-2 [2], 7.2 nM at Pim-1 [3] and 511 nM in experiment [4] (setting [9]).
In the case of `Cc1nc2cccc(-c3cc4c([nH]3)CCNC4=O)c2nc1NC(C)(C)CO` [Example 201, 2-(3-((1-hydroxy-2-methylpropan-2-yl)amino)-2-methylquinoxalin-5-yl)-6,7-dihydro-1H-pyrrolo[3,2-c]pyridin-4(5H)-one], the IC50 at Pim-1 [1] (setting [6]) was 2.5 nM; on Pim-2 [2] it was 2.8 nM; at Pim-1 [3], 3 nM; in experiment [4] (setting [9]), 136 nM; on Pim-2 [5] (setting [8]), 1.7 nM.
In the case of `O=C1NCCc2[nH]c(-c3c(F)ccc4ccc(Nc5ccccc5)nc34)cc21` [Example 227, 2-(7-fluoro-2-(phenylamino)quinolin-8-yl)-6,7-dihydro-1H-pyrrolo[3,2-c]pyridin-4(5H)-one], the IC50 at Pim-2 [2] is 3.9 nM; on Pim-1 [3] it was 0.9 nM; in experiment [4] (setting [9]), 539 nM.
The like results for `O=C1NCCc2[nH]c(-c3c(F)ccc4ccc(Nc5cccnc5)nc34)cc21` [Example 228, 2-(7-fluoro-2-(pyridin-3-ylamino)quinolin-8-yl)-6,7-dihydro-1H-pyrrolo[3,2-c]pyridin-4(5H)-one] were, in that order, 0.9 nM, 3 nM and 1610 nM.

Values taken from US9394297B2, “Amides as pim inhibitors” (AMGEN INC., priority 2012, dated 2016).
